In patent publication US20250171459A1, “2-METHYL-4',5'-DIHYDROSPIRO[PIPERIDINE-4,7'-THIENO[2,3-C]PYRAN] DERIVATIVES AS INHIBITORS OF APOL1 AND METHODS OF USING SAME” (Vertex Pharmaceuticals Incorporated, priority 2022, published 2025):

target: T1, APOL1 (Homo sapiens, UniProt O14791); assay: MultiTox-Fluor Multiplex Cytotoxicity Assay in tet-inducible APOL1 T-REx-HEK293 cells (cell rescue, ratio of dead to live cells); format: cell-based; settings: tet-inducible transgenic APOL1 T-REx-HEK293 cell lines, 50 ng/mL tet, 24 hours; read-out: IP50 (i.e., IC50 for cell proliferation)
T1 sequence (O14791 1-398 S342G/I384M): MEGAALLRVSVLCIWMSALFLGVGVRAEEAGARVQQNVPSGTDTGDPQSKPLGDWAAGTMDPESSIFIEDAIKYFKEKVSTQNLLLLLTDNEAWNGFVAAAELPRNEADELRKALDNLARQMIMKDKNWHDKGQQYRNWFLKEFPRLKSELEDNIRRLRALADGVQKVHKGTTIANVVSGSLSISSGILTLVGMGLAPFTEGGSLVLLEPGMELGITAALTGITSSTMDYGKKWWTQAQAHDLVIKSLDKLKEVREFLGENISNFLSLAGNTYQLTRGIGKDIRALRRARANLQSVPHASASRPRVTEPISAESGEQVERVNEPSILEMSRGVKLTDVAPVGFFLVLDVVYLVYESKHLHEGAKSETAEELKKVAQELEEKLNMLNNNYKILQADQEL
Outline: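 T-REx-HEK293 cells with tet-inducible APOL1 were treated with compound (10 μM top, 10-point 3-fold dilution, duplicate) plus 50 ng/mL tetracycline for 24 h at 37° C, in DMEM with 2% tet-free FBS. MultiTox-Fluor protease signals gave a dead/live ratio, normalized to no tet (100% viability) and tet alone (0%).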

Row | Structure (SMILES) | IC50 [nM]
1 | CCc1cc2c(s1)CCO[C@@]21CCN(Cc2cnc(N[C@@H]3C=C[C@H](CO)C3)nc2)[C@@H](C)C1 [Compound 200, [(1R,4S)-4-[[5-[[(2′S,4R)-2-ethyl-2′-methyl-spiro[6,7-dihydrothieno[3,2-c]pyran-4,4′-piperidine]-1′-yl]methyl]pyrimidin-2-yl]amino]cyclopent-2-en-1-yl]methanol] | < 100
2 | C[C@H]1C[C@@]2(CCN1Cc1cnn(C)c1)OCCc1cc(C(C)(C)C)sc12 [Compound 1020, (2S,4R)-2′-(tert-butyl)-2-methyl-1-((1-methyl-1H-pyrazol-4-yl)methyl)-4′,5′-dihydrospiro[piperidine-4,7′-thieno[2,3-c]pyran]] | 500 to 1000
3 | CCc1cc2c(s1)CCO[C@@]21CCN(C[C@H]2C[C@@H](NC(=O)C3CC(C(F)(F)F)C3)C2)[C@@H](C)C1 (some centres unmarked) [Compound 331] | 100 to 500
4 | Cc1c(Cl)sc2c1C(O)CO[C@@]21CCN(Cc2cnn(CCS(C)(=O)=O)c2)[C@@H](C)C1 (single isomer, unassigned) [Compound 859, (2′S, 7R)-2-chloro-2′,3-dimethyl-1′-[[1-(2-methylsulfonylethyl)pyrazol-4-yl]methyl]spiro[4,5-dihydrothieno[2,3-c]pyran-7,4′-piperidine]-4-ol] | < 100
5 | CCc1cc2c(s1)CCOC21CCN(Cc2csc(-c3cccnc3)n2)CC1 [Compound 1139] | 500 to 1000
6 | C[C@H]1C[C@@]2(CCN1Cc1cn3c(n1)CCC3)OCCc1cc(Cl)sc12 [Compound 679] | 500 to 1000
7 | C[C@H]1C[C@@]2(CCN1Cc1cnn(CC(O)C3(O)CCOCC3)c1)OCCc1c2sc(C(F)(F)F)c1CO (stereo partly drawn) [Compound 930, 4-[1-hydroxy-2-[4-[[(2′S, 7R)-3-(hydroxymethyl)-2′-methyl-2-(trifluoromethyl)spiro[4,5-dihydro-thieno[2,3-c]pyran-7,4′-piperidine]-1′-yl]methyl]pyrazol-1-yl]ethyl]tetrahydropyran-4-ol] | < 100
8 | Cc1cc2c(s1)CCO[C@@]21CCN(CC(O)C(N)=O)[C@@H](C)C1 (some centres unmarked) [Compound 503] | 100 to 500
9 | C[C@H]1C[C@@]2(CCN1Cc1cnn(CCS(C)(=O)=O)c1)OCC(O)c1cc(C(F)(F)F)sc12 (single isomer, unassigned) [Compound 882] | < 100
10 | CC(O)Cn1cc(CN2CC[C@]3(C[C@@H]2C)OCCc2cc(CC(F)F)sc23)nn1 (stereo partly drawn) [Compound 543, 1-[4-[[(2′S, 7R)-2-(2,2-difluoroethyl)-2′-methyl-spiro[4,5-dihydrothieno[2,3-c]pyran-7,4′-piperidine]-1′-yl]methyl]triazol-1-yl]propan-2-ol] | < 100
11 | C[C@H]1C[C@@]2(CCN1Cc1cnn(CCC(N)=O)c1)OC[C@@H](O)c1cc(C(F)(F)F)sc12 [Compound 926] | < 100
12 | CCc1cc2c(s1)CCO[C@@]21CCN(Cc2cn(C[C@H]3C[C@@H](O)C3)nn2)[C@@H](C)C1 [Compound 126] | < 100
13 | C[C@H]1C[C@@]2(CCN1CC1CCN(S(C)(=O)=O)CC1)OC[C@H](O)c1cc(Cl)sc12 [Compound 796] | 100 to 500
14 | C[C@H]1C[C@@]2(CCN1Cc1cc[nH]n1)OCCc1cc(CC(F)F)sc12 [Compound 562] | < 100
15 | CCc1cc2c(s1)CCOC21CCN(Cc2ccc(NCc3cc[nH]c(=O)c3)cc2)CC1 [Compound 1162] | 100 to 500
16 | COc1cncc(CN2CC[C@]3(C[C@@H]2C)OC[C@H](O)c2cc(Cl)sc23)c1 [Compound 806] | 100 to 500
17 | Cc1cncc(CN2CC[C@]3(C[C@@H]2C)OCCc2cc(Cl)sc23)c1 [Compound 649] | 100 to 500
18 | C[C@H]1C[C@@]2(CCN1Cc1cnn(CC(C)(O)C(F)F)c1)OCCc1c2sc(C(F)(F)F)c1CO (some centres unmarked) [Compound 953] | < 100
19 | CCc1cc2c(s1)CCO[C@@]21CCN(C[C@H]2C[C@@H](NC(=O)C(F)(F)F)C2)[C@@H](C)C1 [Compound 387, N-[3-[[(2′S,4R)-2-ethyl-2′-methyl-spiro[6,7-dihydrothieno[3,2-c]pyran-4,4′-piperidine]-1′-yl]methyl]cyclobutyl]-2,2,2-trifluoro-acetamide] | 100 to 500
20 | CCS(=O)(=O)N[C@H]1C[C@@H](CN2CC[C@]3(C[C@@H]2C)OCCc2cc(CC(F)F)sc23)C1 [Compound 553] | < 100
21 | C[C@H]1C[C@@]2(CCN1C1COCC1O)OCCc1cc(CC(F)F)sc12 (some centres unmarked) [Compound 597] | < 100
22 | C[C@H]1C[C@@]2(CCN1Cc1cnccn1)OC[C@H](O)c1cc(Cl)sc12 [Compound 778] | 500 to 1000
23 | CCc1cc2c(s1)CCO[C@@]21CCN(CC2CN(C(=O)c3cc[nH]n3)C2)[C@@H](C)C1 [Compound 469] | < 100
24 | CCN1CC[C@]2(C[C@@H]1C)OCCc1cc(CC(F)F)sc12 [Compound 572] | 100 to 500
25 | CCc1cc2c(s1)CCO[C@@]21CCN(C[C@H]2C[C@@H](NC(=O)c3ccc(C)nn3)C2)[C@@H](C)C1 [Compound 328] | 100 to 500
26 | CCc1cc2c(s1)CCO[C@@]21CCN(Cc2cn(CS(C)(=O)=O)nn2)[C@@H](C)C1 [Compound 13, (2′S)-2-ethyl-2′-methyl-1′-[[1-(methylsulfonylmethyl)triazol-4-yl]methyl]spiro[6,7-dihydrothieno[3,2-c]pyran-4,4′-piperidine]] | < 100
27 | CCc1cc2c(s1)CCO[C@@]21CCN(Cc2cnc(NCCN3CCNC3=O)nc2)[C@@H](C)C1 [Compound 221] | < 100

Row | Structure (SMILES) | IC50 [nM]
28 | Cc1cn2nc(CN3CC[C@]4(C[C@@H]3C)OCCc3cc(Cl)sc34)cc2c(NC2CC2)n1 [Compound 637] | < 100
29 | Cc1ncccc1CN1CC[C@]2(C[C@@H]1C)OCCc1cc(Cl)sc12 [Compound 674] | 500 to 1000
30 | CNS(=O)(=O)CCn1cc(CN2CCC3(CC2)OCC(C)(C)c2sc(Cl)cc23)cn1 [Compound 1177, 2-[4-[(2-chloro-7,7-dimethyl-spiro[6H-thieno[3,2-c]pyran-4,4′-piperidine]-1′-yl)methyl]pyrazol-1-yl]-N-methyl-ethanesulfonamide] | < 100
31 | CCc1cc2c(s1)CCO[C@@]21CCN(Cc2cn(CC3(OCCO)CCOCC3)nn2)[C@@H](C)C1 [Compound 87] | 100 to 500
32 | CCc1cc2c(s1)CCO[C@@]21CCN(CC2CN(C(=O)c3cnn(C)c3)C2)[C@@H](C)C1 [Compound 429] | < 100
33 | C[C@H]1C[C@@]2(CCN1Cc1cccc(OCCO)c1)OCCc1c2sc(Cl)c1CO [Compound 725] | 100 to 500
34 | C[C@H]1C[C@@]2(CCN1CC(O)C(F)(F)F)OCCc1cc(CC(F)F)sc12 (some centres unmarked) [Compound 601] | < 100
35 | CCc1cc2c(s1)CCO[C@@]21CCN(CC2CN(C(=O)c3nnc(C)o3)C2)[C@@H](C)C1 [Compound 476] | < 100
36 | C[C@H]1C[C@@]2(CCN1Cc1ccccc1F)OCCc1cc(Cl)sc12 [Compound 682] | 100 to 500
37 | C[C@H]1C[C@@]2(CCN1Cc1ccc(N3CCCC3=O)cc1)OCCc1c2sc(Cl)c1CO [Compound 714] | < 100
38 | CCc1cc2c(s1)CCO[C@@]21CCN(Cc2cn(CCOc3nonc3C)nn2)[C@@H](C)C1 [Compound 185] | < 100
39 | CCc1cc2c(s1)CCO[C@@]21CCN(Cc2cn(CC(=O)N3CCOCC3)nn2)[C@@H](C)C1 [Compound 90] | 100 to 500
40 | CCc1cc2c(s1)CCO[C@@]21CCN(C[C@H]2C[C@@H](NS(=O)(=O)C3CC3)C2)[C@@H](C)C1 [Compound 390] | < 100
41 | CCc1cc2c(s1)CCO[C@@]21CCN(CC2CN(C(=O)Cn3cnnn3)C2)[C@@H](C)C1 [Compound 464] | < 100
42 | COC(=O)c1c(C(F)(F)F)sc2c1CCO[C@@]21CCN(Cc2cn(CCS(C)(=O)=O)nn2)[C@@H](C)C1 [Compound 1006, Methyl (2′S,7R)-2′-methyl-1′-[[1-(2-methylsulfonylethyl)triazol-4-yl]methyl]-2-(trifluoromethyl)spiro[4,5-dihydrothieno[2,3-c]pyran-7,4′-piperidine]-3-carboxylate] | 100 to 500
43 | CNC(=O)[C@H](O)Cn1cc(CN2CC[C@]3(C[C@@H]2C)OC[C@@H](O)c2cc(C(F)(F)F)sc23)cn1 [Compound 993] | 100 to 500
44 | CCc1cc2c(s1)CCOC21CCN(Cc2cn(CC(=O)NC3COC3)nn2)CC1 [Compound 1122] | 500 to 1000
45 | CC(O)CCN1CC[C@]2(C[C@@H]1C)OC[C@H](O)c1cc(Cl)sc12 (some centres unmarked) [Compound 785] | 500 to 1000
46 | CCOCCOCC(O)Cn1cc(CN2CC[C@]3(C[C@@H]2C)OCCc2sc(CC)cc23)nn1 (some centres unmarked) [Compound 75] | < 100
47 | C[C@H]1C[C@@]2(CCN1CC1(C)COC1)OCCc1cc(CC(F)F)sc12 [Compound 585] | 100 to 500
48 | CCc1cc2c(s1)CCO[C@@]21CCN(C[C@H]2C[C@@H](NC(=O)Oc3ccccc3F)C2)[C@@H](C)C1 [Compound 372] | 500 to 1000
49 | CCc1cc2c(s1)CCOC21CCN(Cc2cn(CC(=O)NC)nn2)CC1 [Compound 1107] | 500 to 1000
50 | COc1ncc(CN2CC[C@]3(C[C@@H]2C)OCCc2cc(Cl)sc23)cn1 [Compound 651] | < 100
51 | C[C@H]1C[C@@]2(CCN1Cc1cnn(CC(=O)N(C)C)c1)OC[C@@H](O)c1cc(C(F)(F)F)sc12 [Compound 886] | < 100
52 | C[C@H]1C[C@@]2(CCN1Cc1cnn(CC(O)CC(C)(C)O)c1)OCCc1c2sc(C(F)(F)F)c1CO (some centres unmarked) [Compound 949] | < 100
53 | CCc1cc2c(s1)CCOC21CCN(Cc2cn(CCS(=O)(=O)NC)nn2)CC1 [Compound 1083] | 500 to 1000
